Data on eleven molecules can be found in ChEMBL document CHEMBL1201862, “PubChem BioAssay data set” (2004).

Some test systems named below: SF-295; SK-MEL-2; NCI-H226; Hs-578T; 786-0; TK-10; MDA-MB-435; MOLT-4; RPMI-8226; A549; HL-60; M14; CAKI-1; HOP-92; MDA-MB-231; LOX IMVI; A498; HT-29; OVCAR-4.
Holding throughout (test): NCI tumour cell line growth inhibition, 48 h

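Step 1: Grow cells in 96-well plates. Step 2: Expose to compound for 48 hours at 5 concentrations. Step 3: Interpolate endpoints linearly; if unreached, use highest concentration. GI50 marks 50% less growth.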 Active and inactive are the calls of the source. Cut-off read from the data, not from the text of the source: active = GI50 up to about 1.1 µM and inactive = higher.

For `Clc1ccc(NCNC2Nc3ccccc3N2)cc1Cl`, the GI50 with SF-295 is 20.4 µM (inactive); in the assay with SK-MEL-2, 32 µM (inactive); with NCI-H226 it was 27.5 µM (inactive); with Hs-578T, > 100 µM (inactive); in the assay with 786-0, 66.8 µM (inactive); in the assay with TK-10, 55.6 µM (inactive). Further, the GI50 was 20.6 µM (inactive) in the assay with MDA-MB-435; 39.2 µM (inactive) in the assay on MOLT-4; 26.4 µM (inactive) with RPMI-8226; 56.9 µM (inactive) with A549; 41.3 µM (inactive) in the assay with HL-60; 83.4 µM (inactive) in the assay with M14. In addition, the GI50 is 34.6 µM (inactive) in the assay with CAKI-1; 48.4 µM (inactive) with HOP-92; 16.7 µM (inactive) in the assay with MDA-MB-231; 4.63 µM (inactive) with LOX IMVI; > 100 µM (inactive) with A498; 13.7 µM (inactive) in the assay with HT-29.
For `CCN(CC)C(=O)C1=C(C)NC(C)=C(C(=O)N(CC)CC)C1`, the GI50 is > 100 µM (inactive) in the assay on SF-295; > 100 µM (inactive) in the assay with SK-MEL-2; 44.7 µM (inactive) with Hs-578T; > 100 µM (inactive) with 786-0; > 100 µM (inactive) in the assay on TK-10; 81.1 µM (inactive) in the assay on MDA-MB-435. In addition, the GI50 in the assay with MOLT-4, in the assay with RPMI-8226, in the assay with A549, in the assay with HL-60, in the assay on M14 and with CAKI-1 was > 100 µM (inactive) in each case. For the same molecule, the GI50 was > 100 µM (inactive) in the assay on HOP-92; 39.4 µM (inactive) in the assay on MDA-MB-231; > 100 µM (inactive) with OVCAR-4; > 100 µM (inactive) in the assay with LOX IMVI; > 100 µM (inactive) with A498.
`COCOCC1CCCN1CN1CCC[C@H]1COCOC` (stereo not given in full): the GI50 with SF-295 is > 100 µM (inactive); in the assay with SK-MEL-2 it was > 100 µM (inactive); in the assay on NCI-H226 it was > 100 µM (inactive); with Hs-578T, > 100 µM (inactive); in the assay with 786-0, 26.5 µM (inactive); in the assay with TK-10, > 100 µM (inactive). In addition, the GI50 was > 100 µM (inactive) in the assay on MDA-MB-435; 50.4 µM (inactive) in the assay with MOLT-4; 33.8 µM (inactive) with RPMI-8226; > 100 µM (inactive) with A549; 17.6 µM (inactive) in the assay with HL-60; > 100 µM (inactive) in the assay on M14. Moreover, the GI50 was > 100 µM (inactive) in the assay with CAKI-1; > 100 µM (inactive) with HOP-92; > 100 µM (inactive) with MDA-MB-231; > 100 µM (inactive) in the assay with OVCAR-4; > 100 µM (inactive) with A498; 70.6 µM (inactive) in the assay on HT-29.
For the molecule `Cn1c2c(c3ccccc31)CC(=O)N1CCCCC1C21OCCO1` (stereo not given), the GI50 in the assay on SF-295, in the assay on SK-MEL-2, with NCI-H226, in the assay with Hs-578T, in the assay with 786-0 and in the assay with TK-10 was > 100 µM (inactive) in each case. Moreover, the GI50 in the assay on MDA-MB-435, with MOLT-4, in the assay with RPMI-8226, in the assay with A549, in the assay with M14 and in the assay on CAKI-1 was > 100 µM (inactive) in each case. The GI50 in the assay on HOP-92, with MDA-MB-231, in the assay on OVCAR-4, in the assay on A498 and in the assay with HT-29 was > 100 µM (inactive) throughout.
As to `CCN(CC)CCOC(c1cc(OC)ccc1OC)c1ccc2n1-c1ccccc1OC2` (stereo not given), the GI50 was 10.4 µM (inactive) in the assay on SF-295; 13.1 µM (inactive) with SK-MEL-2; 3.98 µM (inactive) with NCI-H226; 13.7 µM (inactive) with Hs-578T; 15.6 µM (inactive) with 786-0; 12.1 µM (inactive) in the assay with TK-10. Moreover, the GI50 was 10.5 µM (inactive) with MDA-MB-435; 3.44 µM (inactive) in the assay with RPMI-8226; 14 µM (inactive) with A549; 13.2 µM (inactive) with HL-60; 15.7 µM (inactive) in the assay with M14; 14.9 µM (inactive) with CAKI-1. Further, the GI50 is 1.89 µM (inactive) with HOP-92; 2.09 µM (inactive) with MDA-MB-231; 13.9 µM (inactive) in the assay with OVCAR-4; 11.5 µM (inactive) with LOX IMVI; 11.8 µM (inactive) in the assay on A498; 3.41 µM (inactive) in the assay with HT-29.
Regarding `COC(=O)C(=O)C(C(=O)C(=O)Nc1ccccc1C(=O)OC)c1nc2ccc(C(=O)c3ccccc3)cc2nc1O` (stereo not given), the GI50 was 47.2 µM (inactive) in the assay on SF-295; > 100 µM (inactive) with SK-MEL-2; > 100 µM (inactive) in the assay on NCI-H226; 33.2 µM (inactive) with Hs-578T; > 100 µM (inactive) in the assay on 786-0; > 100 µM (inactive) in the assay on TK-10. Also, the GI50 in the assay on MDA-MB-435 was 38.9 µM (inactive); in the assay on RPMI-8226, 51.9 µM (inactive); with A549, > 100 µM (inactive); in the assay on HL-60, 41 µM (inactive); in the assay on M14 it was > 100 µM (inactive); in the assay with CAKI-1 it was 30.5 µM (inactive). Besides, the GI50 was > 100 µM (inactive) with HOP-92; 76.4 µM (inactive) in the assay on MDA-MB-231; 24.9 µM (inactive) with OVCAR-4; 87.3 µM (inactive) in the assay on LOX IMVI; 81.5 µM (inactive) in the assay on A498; 41.1 µM (inactive) in the assay on HT-29.
In the case of `CN(CCCNC(=O)c1cn(C)c2c1ccc1cc(Cl)c(Cl)cc12)CCCNC(=O)c1cn(C)c2c1ccc1cc(Cl)c(Cl)cc12`, the GI50 with SF-295 was 17.1 µM (inactive); in the assay with SK-MEL-2 it was 16.7 µM (inactive); in the assay with NCI-H226, 22.1 µM (inactive); in the assay on Hs-578T, 8.73 µM (inactive); with 786-0, 6.27 µM (inactive); in the assay with TK-10, 17.5 µM (inactive). Further, the GI50 in the assay on MDA-MB-435 is 6.17 µM (inactive); in the assay with MOLT-4 it was 10.4 µM (inactive); in the assay on A549, 11 µM (inactive); in the assay on HL-60 it was 2.47 µM (inactive); with M14, 10.7 µM (inactive); in the assay on CAKI-1, 11.6 µM (inactive). The GI50 is 11.6 µM (inactive) in the assay with HOP-92; 15.4 µM (inactive) in the assay with MDA-MB-231; 0.789 µM (active) with OVCAR-4; 5.74 µM (inactive) in the assay on LOX IMVI; 12.9 µM (inactive) in the assay on A498; 14.8 µM (inactive) in the assay with HT-29.
Turning to `ON[C@@H]1C=C[C@H](n2cnc3c(NC4CC4)ncnc32)C1`, the GI50 in the assay with SF-295, in the assay on SK-MEL-2, in the assay with NCI-H226, in the assay with Hs-578T, in the assay on 786-0 and with TK-10 was > 100 µM (inactive) in each case. Also, the GI50 in the assay with MDA-MB-435, with MOLT-4, in the assay with RPMI-8226, in the assay on A549, in the assay with M14 and in the assay on CAKI-1 was > 100 µM (inactive) throughout. The GI50 is > 100 µM (inactive) with HOP-92; > 100 µM (inactive) in the assay with MDA-MB-231; > 100 µM (inactive) with OVCAR-4; 87.5 µM (inactive) with LOX IMVI; > 100 µM (inactive) with A498; > 100 µM (inactive) in the assay with HT-29.
`COc1ccc(CC2Cc3ccccc3CC(=O)N2)cc1OC` (stereo not given): the GI50 is 86.7 µM (inactive) with SF-295; > 100 µM (inactive) with SK-MEL-2; 43.6 µM (inactive) with NCI-H226; > 100 µM (inactive) in the assay on Hs-578T; > 100 µM (inactive) in the assay with 786-0; > 100 µM (inactive) with TK-10. The GI50 in the assay with MDA-MB-435 is 55.8 µM (inactive); in the assay with MOLT-4, 24.6 µM (inactive); in the assay on A549, > 100 µM (inactive); in the assay on HL-60 it was 21.4 µM (inactive); in the assay with M14 it was 54 µM (inactive); in the assay on CAKI-1 it was > 100 µM (inactive). The GI50 in the assay with HOP-92 was 89.5 µM (inactive); in the assay on MDA-MB-231, > 100 µM (inactive); in the assay on OVCAR-4 it was 57 µM (inactive); in the assay with LOX IMVI it was 32.8 µM (inactive); with A498, > 100 µM (inactive); in the assay with HT-29, > 100 µM (inactive).
On to `CC1CNC(c2ccc(COc3ccc(C4=NC(C)CN4)cc3)cc2)=N1` (stereo not given), for which the GI50 is 43.4 µM (inactive) in the assay on SF-295; 18.6 µM (inactive) with SK-MEL-2; 22.9 µM (inactive) in the assay on Hs-578T; > 100 µM (inactive) in the assay on 786-0; 65.9 µM (inactive) in the assay with TK-10; 61 µM (inactive) in the assay on MDA-MB-435. Also, the GI50 was > 100 µM (inactive) in the assay with MOLT-4; 29.9 µM (inactive) with RPMI-8226; 21.2 µM (inactive) in the assay with A549; > 100 µM (inactive) in the assay with HL-60; 60.1 µM (inactive) in the assay with M14; > 100 µM (inactive) with CAKI-1. The GI50 with HOP-92 was > 100 µM (inactive); in the assay with MDA-MB-231, 45.9 µM (inactive); with OVCAR-4, > 100 µM (inactive); in the assay with LOX IMVI, > 100 µM (inactive); in the assay on A498, > 100 µM (inactive); in the assay with HT-29, > 100 µM (inactive).
As for `CCOC(=O)c1cc(NC(=O)N(CCC#N)CCN(C(=O)N[C@@H](Cc2ccccc2)C(=O)N[C@@H](CC(C)C)C(=O)NC)c2ccccc2)ccc1OC`, the GI50 in the assay on SF-295 is 34.6 µM (inactive); with SK-MEL-2 it was 38.2 µM (inactive); in the assay on NCI-H226, 35.5 µM (inactive); with Hs-578T, 42.2 µM (inactive); with 786-0, 45.3 µM (inactive); with TK-10, 46.5 µM (inactive). In addition, the GI50 in the assay with MDA-MB-435 is 30.9 µM (inactive); with MOLT-4 it was 23.4 µM (inactive); in the assay with RPMI-8226 it was 16.3 µM (inactive); in the assay with A549, > 100 µM (inactive); with M14 it was 99.5 µM (inactive); in the assay with CAKI-1, > 100 µM (inactive). In addition, the GI50 with HOP-92 was 34.3 µM (inactive); in the assay with MDA-MB-231, 74.5 µM (inactive); in the assay on OVCAR-4 it was 44 µM (inactive); in the assay with LOX IMVI, 18.2 µM (inactive); with A498, 63.7 µM (inactive).
